# Source: US20250326744A1, “PIPERAZINE DERIVATIVE OR SALT THEREOF, AND PHARMACEUTICAL COMPOSITION” (priority 2022, published 2025)
# Where a name gives a salt, the structure may show the parent alone.
# Key:
# [1] = test system: mexB (PA) strain; assay: Combinational effect with antibacterial agent against Pseudomonas aeruginosa (Test Examples 2 and 4): mexB (PA) strain with LVFX, TC or AZT at 1/4 MIC, EC99; type: cell-based; settings: mexB (PA) strain, Test Example 4; for EC99, combinational effect with AZT, mexB (PA): combined with AZT at 1/4 MIC; for EC99, combinational effect with LVFX, mexB (PA): combined with LVFX at 1/4 MIC; for EC99, combinational effect with TC, mexB (PA): combined with TC at 1/4 MIC
# Procedure, shortened: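 P. aeruginosa mexB (PA) strain, lacking MexCD-OprJ, MexEF-OprN and MexXY and overexpressing MexAB-OprM, grown 16–20 h in CAMHB (10^4–5 CFU/well) with LVFX, TC or AZT at ¼ MIC plus test compound at 0–800 μM. Growth read as OD595; EC99 is the lowest compound concentration giving ≥99% growth inhibition.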
# [2] = test system: S-3769 strain; assay: Combinational effect with antibacterial agent against Pseudomonas aeruginosa (Test Examples 2 and 4): S-3769 strain with AMK or GM at 1/4 MIC, EC99; type: cell-based; settings: S-3769 strain, Test Example 4; for EC99, combinational effect with AMK, S-3769 strain: combined with AMK at 1/4 MIC; for EC99, combinational effect with GM, S-3769 strain: combined with GM at 1/4 MIC
# Procedure, shortened: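 P. aeruginosa S-3769 (clinical isolate, MexY overexpressed) grown 16–20 h in CAMHB, 10^4 to 5 CFU/well, with AMK or GM at ¼ MIC plus test compound 0–800 μM. Growth read as OD595; EC99 is the lowest compound concentration giving ≥99% growth inhibition.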
SMILES,"EC99, combinational effect with AZT, mexB (PA) [1]","EC99, combinational effect with LVFX, mexB (PA) [1]","EC99, combinational effect with TC, mexB (PA) [1]","EC99, combinational effect with AMK, S-3769 strain [2]","EC99, combinational effect with GM, S-3769 strain [2]"
"CCSc1ccc(O)cc1CN1CCN(C(=O)[C@H](N)C2CCN(CCc3cc(Cl)ccc3-c3cc(O)cc(F)c3)CC2)CC1 [Example 620, (R)-2-amino-2-(1-(2-(4-chloro-3′-fluoro-5′-hydroxy-[1,1′-biphenyl]-2-yl)ethyl)piperidin-4-yl)-1-(4-(2-(ethylthio)-5-hydroxybenzyl)piperazin-1-yl)ethan-1-one]",S (EC99≤12.5 μM),S (EC99≤12.5 μM),S (EC99≤12.5 μM),S (EC99≤12.5 μM),S (EC99≤12.5 μM)
"CCSc1ccc(O)cc1CN1CCN(C(=O)[C@H](N)C2CCN(CCc3cc(Cl)ccc3-c3cc(O)ccc3F)CC2)CC1 [Example 621, (R)-2-amino-2-(1-(2-(4-chloro-2′-fluoro-5′-hydroxy-[1,1′-biphenyl]-2-yl)ethyl)piperidin-4-yl)-1-(4-(2-(ethylthio)-5-hydroxybenzyl)piperazin-1-yl)ethan-1-one]",S (EC99≤12.5 μM),S (EC99≤12.5 μM),S (EC99≤12.5 μM),S (EC99≤12.5 μM),S (EC99≤12.5 μM)
"CCSc1ccc(O)cc1CN1CCN(C(=O)[C@H](N)C2CCN(CCc3cc(Cl)ccc3-c3cccc(O)c3Cl)CC2)CC1 [Example 622, Hydrochloride of (R)-2-amino-2-(1-(2-(2′,4-dichloro-3′-hydroxy-[1,1-biphenyl]-2-yl)ethyl)piperidin-4-yl)-1-(4-(2-(ethylthio)-5-hydroxybenzyl)piperazin-1-yl)ethan-1-one]",S (EC99≤12.5 μM),S (EC99≤12.5 μM),S (EC99≤12.5 μM),S (EC99≤12.5 μM),A (12.5 μM<EC99≤25 μM)
"CCSc1cc(F)ccc1CN1CCN(C(=O)[C@H](N)C2CCN(CCc3ccc(O)cc3-c3ccccc3)CC2)CC1 [Example 624, Hydrochloride of (R)-2-amino-1-(4-(2-(ethylthio)-4-fluorobenzyl)piperazin-1-yl)-2-(1-(2-(5-hydroxy-[1,1-biphenyl]-2-yl)ethyl)piperidin-4-yl)ethan-1-one]",C (100 μM<EC99),B (25 μM<EC99≤100 μM),B (25 μM<EC99≤100 μM),B (25 μM<EC99≤100 μM),B (25 μM<EC99≤100 μM)
"CCOc1cccc(F)c1CN1CCN(C(=O)[C@H](N)C2CCN(CCc3ccc(O)cc3-c3ccccc3)CC2)CC1 [Example 625, Hydrochloride of (R)-2-amino-1-(4-(2-ethoxy-6-fluorobenzyl)piperazin-1-yl)-2-(1-(2-(5-hydroxy-[1,1-biphenyl]-2-yl)ethyl)piperidin-4-yl)ethan-1-one]",C (100 μM<EC99),C (100 μM<EC99),C (100 μM<EC99),A (12.5 μM<EC99≤25 μM),A (12.5 μM<EC99≤25 μM)
